Assay results taken from patent publication US6201006A, “Aromatic amidine derivatives useful as selective thrombin inhibitors” (C & C Research Laboratories, priority 1996, dated 2001).

Molecular target: T1, human thrombin (Homo sapiens, UniProt P00734)
T1 construct: purchased Sigma T-6759
Test: Inhibitory activity for thrombin (chromogenic substrate hydrolysis, 405 nm)
Format: biochemical
Conditions: for IC50: human thrombin, 20 min, pH 8.0, N-benzoyl-Phe-Val-Arg-p-nitroanilide; for Selectivity (trypsin/thrombin): IC50 for trypsin divided by IC50 for thrombin
Experimental: 20 μl of each compound of the present invention was dissolved in 50% methanol in various concentrations and then added to each well of a microplate, to each of which 160 μl of the reaction medium containing 125 mM NaCl, 50 mM Tris-HCl (pH 8.0) and 2 mM synthetic substrate (N-benzoyl-Phe-Val-Arg-p-nitroanilide, Sigma B-7632) were added. 20 μl of human thrombin solution (5 units/ml, Sigma T-6759, manufactured by Sigma Co.) containing 0.1% bovine serum albumin was added to each well to initiate the enzymatic reaction. After 20 minutes, the hydrolysis of substrate was determined by measuring the absorbance at 405 nm. […] The selectivity index was calculated by dividing the IC50 value for trypsin by the IC50 value for thrombin. The thrombin inhibitory activity and the trypsin inhibitory activity for the compound of the present invention are shown in the following Table 2.

Question: With `Cn1c(CC[C@@H]2CCCN2Cc2c(C(N)=O)sc3ccccc23)cc2ccc(C(=N)N)cc21` [Compound 9] as the molecule, how does the IC50 read?
Answer: 0.0339 µM

Question: How did the “Selectivity (trypsin/thrombin)” value turn out when `CCn1c(CC[C@@H]2CCCN2C(=O)Cc2ccccc2C(=O)O)cc2ccc(C(=N)N)cc21` [Compound 24, 2-[2-[(S)-2-[2-(6-amidino-1-ethylindol-2-yl)ethyl]pyrrolidinyl]-2-oxoethyl]benzoic acid] was run?
Answer: 83.6

Question: And the IC50?
Answer: 0.00845 µM

Question: How did the IC50 turn out when `CCn1c(CC[C@@H]2CCCN2C(=O)[C@H](NS(C)(=O)=O)c2ccccc2)cc2ccc(C(=N)N)cc21` [Compound 37, 1ethyl-2-[2-[(S)-1-((R)-2-methylsulfonylamino-2-phenylacetyl)pyrrolidin-2-yl]ethyl]indole-6-carboxamidine] was run?
Answer: 0.0054 µM

Question: Which IC50 does the source give for `CCn1c(CC[C@@H]2CCCN2C(=O)[C@H](NCC(N)=O)c2ccccc2)cc2ccc(C(=N)N)cc21` [Compound 39, 1ethyl-2-[2-[(S)-1-[(R)-2-(carbamoylmethylamino)-2-phenylacetyl]pyrrolidin-2-yl]ethyl]indole-6-carboxamidine] here?
Answer: 0.00691 µM

Question: For `CCn1c(CC[C@@H]2CCCN2C(=O)[C@H](NCC(=O)O)c2ccccc2)cc2ccc(C(=N)N)cc21` [Compound 40, 2-[[(R)-2-[2-(S)-2-[2-(6-amidino-1-ethylindol-2-yl)ethyl]pyrrolidinyl]-2-oxo-1-phenylethyl]amino]acetic acid], which IC50 is on record?
Answer: 0.00795 µM

Question: With `CCn1c(CC[C@@H]2CCCN2C(=O)CC2CCCC2)cc2ccc(C(=N)N)cc21` [Compound 43, 1ethyl-2-[2-[(S)-1-(2-cyclopentylacetyl)pyrrolidin-2-yl]ethyl]indole-6-carboxamidine] as the molecule, how does the “Selectivity (trypsin/thrombin)” value read?
Answer: 40.3

Question: And the IC50?
Answer: 0.00996 µM

Question: `CCn1c(CC[C@@H]2CCCN2C(=O)CC2CCCCC2)cc2ccc(C(=N)N)cc21` [Compound 46, 1ethyl-2-[2-[(S)-1-(2-cyclohexylacetyl)pyrrolidin-2-yl]ethyl]indole-6-carboxamidine] was tested. Which IC50 did it give?
Answer: 0.0289 µM

Question: Which IC50 does the source give for `CCn1c(CC[C@@H]2CCCN2C(=O)CNC2CC2)cc2ccc(C(=N)N)cc21` [Compound 57, 1-ethyl-2-[2-[(S)-1-(2-cyclopropylaminoacetyl)pyrrolidin-2-yl]ethyl]indole-6-carboxamidine] here?
Answer: 0.00773 µM

Question: What does the source list for `CCOC(=O)CN(CC(=O)N1CCC[C@H]1CCc1cc2ccc(C(=N)N)cc2n1CC)C1CC1` [Compound 62, ethyl 2-[[2-[(S)-2-[2-(6-amidino-1-ethylindol-2-yl)ethyl]pyrrolidinyl]-2-oxoethyl]cyclopropylamino]acetate]?
Answer: Selectivity (trypsin/thrombin): 49.7; IC50: 0.0117 µM

Question: `CCOC(=O)CN(C1CC1)C(C)C(=O)N1CCC[C@H]1CCc1cc2ccc(C(=N)N)cc2n1CC` (stereo partly drawn) [Compound 64, ethyl 2-[[2-[(S)-2-[2-(6-amidino-1-ethylindol-2-yl)ethyl]pyrrolidinyl]-1-methyl-2-oxoethyl]cyclo-propylamino]acetate] was tested. Which “Selectivity (trypsin/thrombin)” value did it give?
Answer: 22.9

Question: And the IC50?
Answer: 0.0152 µM

Question: Which IC50 does the source give for `CCn1c(CC[C@@H]2CCCN2C(=O)C(C)N(CC(=O)O)C2CC2)cc2ccc(C(=N)N)cc21` (stereo partly drawn) [Compound 65, 2-[[2-[(S)-2-[2-(6-amidino-1-ethylindol-2-yl)ethyl]pyrrolidinyl]-1-methyl-2-oxoethyl]cyclopylamino]acetic acid] here?
Answer: 0.0221 µM

Question: With `CCOC(=O)CC(NC1CC1)C(=O)N1CCC[C@H]1CCc1cc2ccc(C(=N)N)cc2n1CC` (stereo partly drawn) [Compound 72, ethyl 4-[(S)-2-[2-(6-amidino-1-ethylindol-2-yl)ethyl]pyrrolidinyl]-3-cyclopropylamino-4-oxobutanoate] as the molecule, how does the “Selectivity (trypsin/thrombin)” value read?
Answer: 13.6

Question: What about the IC50 of the same molecule?
Answer: 0.0094 µM

Question: How did the IC50 turn out when `CCn1c(CC[C@@H]2CCCN2C(=O)C(CC(=O)O)NC2CC2)cc2ccc(C(=N)N)cc21` (stereo partly drawn) [Compound 73, 4-[(S)-2-[2-(6-amidino-1-ethylindol-2-yl)ethyl]pyrrolidinyl]-3-cyclopropylamino-4-oxobutanoic acid] was run?
Answer: 0.0332 µM

Question: Which IC50 does the source give for `CCn1c(CC[C@@H]2CCCN2C(=O)[C@H]2CCCN2)cc2ccc(C(=N)N)cc21` [Compound 83] here?
Answer: 0.0309 µM

Question: What does the source list for `CCOC(=O)CN1CCC[C@@H]1C(=O)N1CCC[C@H]1CCc1cc2ccc(C(=N)N)cc2n1C` [Compound 84, ethyl 2-[(R)-2-[[(S)-2-[2-(6-amidino-1-methylindol-2-yl)ethyl]pyrrolidinyl]carbonyl]pyrrolidinyl]acetate]?
Answer: Selectivity (trypsin/thrombin): 87.0; IC50: 0.0516 µM

Question: For `CCn1c(CC[C@H]2C[C@H](C)CN2C(=O)[C@H]2CCCN2CC(=O)O)cc2ccc(C(=N)N)cc21` [Compound 98, 2-[(R)-2-[[(S)-2-[2-(6-amidino-1-ethylindol-2-yl)ethyl]-(S)-4-methylpyrrolidinyl]carbonyl]pyrrolidinyl]acetic acid], which IC50 is on record?
Answer: 0.0203 µM

Question: `CCOC(=O)C(C)N1CCC[C@@H]1C(=O)N1CCC[C@H]1CCc1cc2ccc(C(=N)N)cc2n1CC` (stereo partly drawn) [Compound 109, ethyl-2-[(R)-2-[[(S)-2-[2-(6-amidino-1-ethylindol-2-yl)ethyl]pyrrolidinyl]carbonyl]pyrrolidinyl]propionate] was tested. Which IC50 did it give?
Answer: 0.0319 µM

Question: For `CCOC(=O)C(CC)N1CCC[C@@H]1C(=O)N1CCC[C@H]1CCc1cc2ccc(C(=N)N)cc2n1CC` (stereo partly drawn) [Compound 110, ethyl 2-[(R)-2-[[(S)-2-[2-(6-amidino-1-ethylindol-2-yl)ethyl]pyrrolidinyl]carbonyl]pyrrolidinyl]butanoate], which “Selectivity (trypsin/thrombin)” value is on record?
Answer: 38.6

Question: What about the IC50 of the same molecule?
Answer: 0.0377 µM

Question: Which IC50 does the source give for `CCOC(=O)C(c1ccccc1)N1CCC[C@@H]1C(=O)N1CCC[C@H]1CCc1cc2ccc(C(=N)N)cc2n1CC` (stereo partly drawn) [Compound 112, ethyl-2-[(R)-2-[[(S)-2-[2-(6-amidino-1-ethylindol-2-yl)ethyl]pyrrolidinyl]carbonyl]pyrrolidinyl]-2-phenylacetate] here?
Answer: 0.0292 µM

Question: How did the IC50 turn out when `CCn1c(CC[C@@H]2CCCN2C(=O)[C@H]2CCCN2CC(=O)NC2CC2)cc2ccc(C(=N)N)cc21` [Compound 115, 1-ethyl-2-[2-[(S)-1-[[(R)-1-[(N-cyclopropylcarbamoyl)methyl]pyrrolidin-2-yl]carbonyl]pyrrolidin-2-yl]-ethyl]indole-6-carboxamidine] was run?
Answer: 0.0318 µM

Question: What does the source list for `CCOC(=O)[C@H](C)NC(=O)CN1CCC[C@@H]1C(=O)N1CCC[C@H]1CCc1cc2ccc(C(=N)N)cc2n1CC` [Compound 116, ethyl (s)-2-[2-[(R)-2-[[(S)-2-[2-(6-amidino-1-ethylindol-2-yl)ethyl]pyrrolidinyl]carbonyl]pyrrolidinyl]-acetylamino]propanoate]?
Answer: Selectivity (trypsin/thrombin): 27.4; IC50: 0.0317 µM

Question: For `CCn1c(CCC2CCCN2C(=O)C2CCCN2C(CC(=O)O)C(=O)O)cc2ccc(C(=N)N)cc21` [Compound 123, 1-[(R)-2-[[(S)-2-[2-(6-amidino-1-ethyl-indol-2-yl)ethyl]pyrrolidinyl]carbonyl]pyrrolidinyl]ethane-1,2-dicarboxylic acid], which IC50 is on record?
Answer: 0.0329 µM

Question: `CCOC(=O)CCCCN1CCC[C@@H]1C(=O)N1CCC[C@H]1CCc1cc2ccc(C(=N)N)cc2n1CC` [Compound 128, ethyl 5-[(R)-2-[[(S)-2-[2-(6-amidino-1-ethylindol-2-yl)ethyl]pyrrolidinyl]carbonyl]pyrrolidinyl]pentanoate] was tested. Which IC50 did it give?
Answer: 0.0262 µM

Question: How did the “Selectivity (trypsin/thrombin)” value turn out when `CCn1c(CC[C@@H]2CCCN2C(=O)[C@H]2CCCN2CCCCC(=O)O)cc2ccc(C(=N)N)cc21` [Compound 129, 5-[(R)-2-[[(S)-2-[2-(6-amidino-1-ethylindol-2-yl)-ethyl]pyrrolidinyl]carbonyl]pyrrolidinyl]pentanoic acid] was run?
Answer: 10.6

Question: And the IC50?
Answer: 0.0131 µM

Question: Which IC50 does the source give for `CCOC(=O)CCCCCN1CCC[C@@H]1C(=O)N1CCC[C@H]1CCc1cc2ccc(C(=N)N)cc2n1CC` [Compound 130, ethyl 6-[(R)-2-[[(S)-2-[2-(6-amidino-1-ethylindol-2-yl)-ethyl]pyrrolidinyl]carbonyl]pyrrolidinyl]hexanoate] here?
Answer: 0.0365 µM

Question: Which results are given for `CCn1c(CC[C@@H]2CCCN2C(=O)[C@H]2CCCN2CCCCCC(=O)O)cc2ccc(C(=N)N)cc21` [Compound 131, 6-[(R)-2-[[(S)-2-[2-(6-amidino-1-ethylindol-2-yl)-ethyl]pyrrolidinyl]carbonyl]pyrrolidinyl]hexanoic acid]?
Answer: Selectivity (trypsin/thrombin): 14.7; IC50: 0.00929 µM

Question: With `CCn1c(CC[C@@H]2CCCN2C(=O)[C@H]2CCCN2C(=O)CNC)cc2ccc(C(=N)N)cc21` [Compound 142, 1-ethyl-2-[2-[(S)-1-[[(R)-1-[2-(methylamino)acetyl]pyrrolidin-2-yl]carbonyl]pyrrolidin-2-yl]ethyl]indole-6-carboxamidine] as the molecule, how does the IC50 read?
Answer: 0.0331 µM

Question: With `CCC(N)C(=O)N1CCC[C@@H]1C(=O)N1CCC[C@H]1CCc1cc2ccc(C(=N)N)cc2n1CC` (stereo partly drawn) [Compound 144, 1-ethyl-2-[2-[(S)-1-[[(R)-1-(2-aminobutanoyl)pyrrolidin-2-yl]carbonyl]pyrrolidin-2-yl]ethyl]indole-6-carboxamidine] as the molecule, how does the IC50 read?
Answer: 0.0253 µM

Question: Which results are given for `CCn1c(CC[C@@H]2CCCN2C(=O)[C@H]2CCCN2C(=O)[C@@H](N)C(C)C)cc2ccc(C(=N)N)cc21` [Compound 145, 1-ethyl-2-[2-[(S)-1-[[(R)-1-((S)-2-amino-3-methylbutanoyl)pyrrolidin-2-yl]carbonyl]pyrrolidin-2-yl]-ethyl]indole-6-carboxamidine]?
Answer: Selectivity (trypsin/thrombin): 20.1; IC50: 0.0261 µM

Question: `CCOC(=O)C[C@H](N)C(=O)N1CCC[C@@H]1C(=O)N1CCC[C@H]1CCc1cc2ccc(C(=N)N)cc2n1CC` [Compound 147, ethyl 4-[(R)-2-[[(S)-2-[2-(6-amidino-1-ethylindol-2-yl)ethyl]pyrrolidinyl]carbonyl]pyrrolidinyl]-(S)-3-amino-4-oxobutanoate] was tested. Which IC50 did it give?
Answer: 0.0255 µM
